Measurements: article PMC4632357, “Impact of chrysosplenetin on the pharmacokinetics and anti-malarial efficacy of artemisinin against Plasmodium berghei as well as in vitro CYP450 enzymatic activities in rat liver microsome” (Malaria Journal, 2015)

Experiments:
[1] = Pharmacokinetics of ART in rats in absence and presence of CHR; type: in vivo; conditions: ART in rat plasma, ART 5 mg/kg intramuscular on day 3, 1 h after 3-day oral CHR (5, 10, 20 mg/kg for 1:1, 1:2, 1:4) or CMC-Na, n = 5, mean ± SD
Experimental: Male SD rats (200-240 g) were supplied by Laboratory Animal Center of […] Medical University (Grade II, Certificate No. […] Animals were acclimatized in environmentally controlled breeding cages for at least 3 days before being used and were provided with standard laboratory food and water and were fasted for 12 h prior to the study. Water was freely available for rats during experiments. The experimental protocol was approved by the University Ethics Committee. All procedures involving animals were in accordance with the Regulations of the Experimental Animal Administration, State Committee of Science and Technology, People's Republic of China. 20 rats were randomly divided into 4 groups (n = 5). Group A was the control vehicle (ART alone) and group L, M, and H were the combination groups with CHR in three fixed ratios (1:1, 1:2, and 1:4). […] Group A was orally given by 0.5 % CMC-Na solution once per day for 3 days. On day 3, an intramuscular injection of ART (5 mg/kg) was subsequently administered 1 h after CHR or CMC-Na solution pre-exposure. […] Two hours later, animals took food and water freely to replenish. Plasma samples were separated by centrifugation 3500g for 10 min and 200 μL plasmas were stored at -20 °C until analysis. To 100 μL blank plasma, 50 μL ARM working solution (IS, 2 μg/mL), 100 μL methanol aqueous solution (50:50, v/v), and a standard solution or quality control (QC) solution were added. After vortex mixing for 1 min, the sample was extracted with 3 × 3 mL of methyl tert-butyl ether with gentle shaking for 10 min followed by centrifugation at 3500g for 10 min. […] The residue was reconstituted in 100 μL methanol and was filtered through a 0.22 μm nylon filter. Aliquots (10 μL) of the solution were injected onto the LC-MS analysis. Pharmacokinetic parameters were computed from plasma concentration-time profiles of ART by software DAS 3.0.

[2] = set-up: method as in PMID 17521300, PMID 18064444, PMID 9443848; conditions: cited from earlier work
[3] = system: P. berghei K173 strain; test: In vivo anti-malarial efficacy (chemo-suppressive study) in infected mice; conditions: for Parasitemia: placebo 22.15 ± 6.25
[4] = system: CYP2A; test: in vitro; conditions: rat
[5] = system: CYP2A; test: In vitro rat liver microsome experiment, CYP2A (probe CA)
[6] = target: T1, CYP1A2 (Rattus norvegicus, UniProt P04799); test: In vitro rat liver microsome experiment, CYP1A2 (probe PN); type: in vitro ADME
T1 sequence (P04799 1-513): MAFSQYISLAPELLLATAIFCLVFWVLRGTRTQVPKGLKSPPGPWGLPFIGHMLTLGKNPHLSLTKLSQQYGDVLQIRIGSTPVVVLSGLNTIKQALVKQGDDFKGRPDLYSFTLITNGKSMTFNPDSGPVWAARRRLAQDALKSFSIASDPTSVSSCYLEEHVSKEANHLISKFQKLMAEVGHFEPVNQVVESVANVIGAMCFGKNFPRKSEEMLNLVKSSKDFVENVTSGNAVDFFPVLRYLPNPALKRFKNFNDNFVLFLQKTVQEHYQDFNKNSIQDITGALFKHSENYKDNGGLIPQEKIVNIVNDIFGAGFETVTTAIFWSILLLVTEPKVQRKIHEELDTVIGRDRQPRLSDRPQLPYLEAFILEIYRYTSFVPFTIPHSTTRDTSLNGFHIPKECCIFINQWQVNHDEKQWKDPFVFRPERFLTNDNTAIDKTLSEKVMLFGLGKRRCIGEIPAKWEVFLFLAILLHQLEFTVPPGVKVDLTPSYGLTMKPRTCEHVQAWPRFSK

[7] = system: CYP2D6; test: In vitro rat liver microsome experiment, CYP2D6 (probe DM); type: in vitro ADME
Experimental: (§1) Total reaction volume was complemented to 200 μL by PBS. After pre-incubating for 3 min at 37 °C, the reaction was initiated by the addition of NADPH solution (incubation time was optimized as 45 min for PN; 60 min for CA, 15 min for OPZ; 20 min for DM; 90 min for CLZ; 15 min for MDZ). 200 μL ice acetonitrile was added as stop reagent. After a vortex for 3 min and centrifugation for 10 min at 14,000g, an aliquot of 20 μL supernatant was injected into the HPLC system at an interval of 10 min. The amount of methanol in diluted concentrations (<1 %) had no effect on liver microsomes. All the testing groups were in three replicates (n = 3). Under the optimized condition, Vmax, Michaelis constant (Km), enzyme activity (E%), and IC50 values were obtained.

[8] = target: CYP2E1 (Rattus norvegicus, UniProt P05182); test: In vitro rat liver microsome experiment, CYP2E1 (probe CLZ); type: in vitro ADME
[9] = system: CYP3A; test: In vitro rat liver microsome experiment, CYP3A (probe MDZ); type: in vitro ADME
Experimental: as §1
Incubation systems including 1.0 mg/mL RLM, PN (12.5, 25.0, and 50.0 μM), NPDPH, and CHR (0, 2, 4, 8 μM) for 1A2 or 0.5 mg/mL RLM, MDZ (2.5, 5.0, 10.0 μM), NPDPH, and CHR (0, 2, 4, 8 μM) for CYP3A were employed as above (n = 3). A serial of Lineweaver–Burk plots by 1/[S] versus 1/V were prepared individually under different concentrations of CHR. The location of intersection point for the linear lines decided the type of inhibition. Namely, if the point lied in Y axis it was competitive inhibition and if it lied in X axis it was non-competitive inhibition. Finally, if the linear lines were paralleled, it was uncompetitive inhibition. Concomitantly, inhibition constant (Ki) was calculated when a second plotting was given by intercepts of the four lines versus [I] (inhibitor concentration).

[10] = system: CYP2C19; test: In vitro rat liver microsome experiment, CYP2C19 (probe OPZ)
[11] = system: CYP2C19; test: in vitro; conditions: rat
[12] = substrate: CCOc1ccc(NC(C)=O)cc1; test: cells, lysate or membranes named; conditions: other: probe substrate in rat liver microsomes; 37.0 °C
[13] = probe substrate in rat liver microsomes
[14] = Lineweaver–Burk plots, rat liver microsomes
[15] = moderate: 1 < IC50 < 10 μM, criteria of ref 21
[16] = rat liver microsomes, CHR 0–50 μM, P > 0.05

Chain of CYP2E1 (P05182 whole entry): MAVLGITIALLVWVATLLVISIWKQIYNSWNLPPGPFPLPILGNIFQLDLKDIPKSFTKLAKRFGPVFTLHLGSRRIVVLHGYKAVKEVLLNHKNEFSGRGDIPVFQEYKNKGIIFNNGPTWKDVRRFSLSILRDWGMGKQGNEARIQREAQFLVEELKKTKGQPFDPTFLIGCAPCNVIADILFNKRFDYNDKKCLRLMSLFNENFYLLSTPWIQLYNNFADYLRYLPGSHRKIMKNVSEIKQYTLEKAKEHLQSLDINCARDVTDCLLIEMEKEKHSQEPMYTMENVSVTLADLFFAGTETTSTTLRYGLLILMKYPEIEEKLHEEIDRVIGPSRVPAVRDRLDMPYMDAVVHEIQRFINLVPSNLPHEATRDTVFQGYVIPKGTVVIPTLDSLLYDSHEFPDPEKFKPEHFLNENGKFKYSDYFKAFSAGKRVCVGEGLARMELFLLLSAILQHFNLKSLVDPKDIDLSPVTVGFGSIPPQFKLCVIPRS

C[C@@H]1CC[C@H]2[C@@H](C)C(=O)O[C@@H]3O[C@@]4(C)CC[C@@H]1[C@]32OO4 [ART, Artemisinin]
AUC0–t [1]: 390.58 ± 32.46 µg·h/mL
Cmax ([1]; male): 51.6 ± 9.47 µg/mL
half-life ([1]; male): 3.62 ± 0.86 h
clearance ([1]; male, read-out: CLz (converted)): 0.217 mL/min/kg
oral bioavailability [2]: 8–10%
Parasitemia ([3]; Kunming mice, ART 5 mg/kg alone or with CHR 5, 10, 20 mg/kg (1:1, 1:2, 1:4), 3 days, 24 h after last dosing, n = 10): 13.95 ± 7.89 %
decrease of parasitaemia (%) compared with placebo ([3]; mice, P < 0.05): 1.59 folds
Inhibition ([3]; relative to placebo, Kunming mice, ART 5 mg/kg alone or with CHR 5, 10, 20 mg/kg, n = 10): 37.06%

O=c1ccc2ccccc2o1 [CA, coumarin, reference compound]
Km at 60 min [4]: 8.9 µM
Vmax [5, 13]: 0.12 nmol/min/mg proteins

COc1cc(-c2oc3cc(OC)c(OC)c(O)c3c(=O)c2OC)ccc1O [CHR, chrysosplenetin]
Ki ([6]; 1.0 mg/mL RLM, PN 12.5, 25.0, 50.0 μM, CHR 0, 2, 4, 8 μM, second plot of Lineweaver–Burk intercepts): 4.07 µM
inhibition type [6, 14]: noncompetitive
inhibitor strength class [6, 15]: moderate inhibitor
IC50 ([6]; rat liver microsomes, PN 25 μM, GraphPad Prism 5.0): 4.61 µM
impact on enzyme activity [7, 16]: no impact
IC50 ([8]; rat liver microsomes, CLZ 15 μM, GraphPad Prism 5.0): 28.2 µM
inhibitor strength class ([8]; weak: IC50 >10 μM, criteria of ref 21): weak inhibitor
inhibition type [9, 14]: uncompetitive
inhibitor strength class [9, 15]: moderate inhibitor
IC50 at 15 min ([9]; probe midazolam (MDZ) 5 μM, rat liver microsomes, MDZ 5 μM, GraphPad Prism 5.0): 3.38 µM
Ki at 15 min ([9]; rat, rat liver microsomes, probe midazolam (MDZ) 2.5, 0.5 mg/mL RLM, MDZ 2.5, 5.0, 10.0 μM, CHR 0, 2, 4, 8 μM, second plot of Lineweaver–Burk intercepts): 3.71 µM
impact on enzyme activity [5, 16]: no impact
inhibitor strength class [10, 15]: moderate inhibitor
IC50 at 15 min ([10]; rat, microsomes): 6.23 µM
Parasitemia ([3]; CHR alone 5 mg/kg (CHR-L), Kunming mice, n = 10): 19.74 ± 13.33%
Parasitemia ([3]; CHR alone 10 mg/kg (CHR-M), Kunming mice, n = 10): 17.19 ± 5.45%
Parasitemia ([3]; CHR alone 20 mg/kg (CHR-H), Kunming mice, n = 10): 18.32 ± 8.86%

COc1ccc2c(c1)[C@]13CCCC[C@@H]1[C@H](C2)N(C)CC3 [DM, dextromethophan]
Km [7, 13]: 28.9 µM
Vmax [7, 13]: 0.20 nmol/min/mg proteins

Cc1ncc2n1-c1ccc(Cl)cc1C(c1ccccc1F)=NC2 [MDZ, Midazolam, reference compound]
Km at 15 min [9, 13]: 7.88 µM
Vmax [9, 13]: 0.81 nmol/min/mg proteins

COc1ccc2[nH]c([S+]([O-])Cc3ncc(C)c(OC)c3C)nc2c1 (centres unmarked) [OPZ, omeprazole, reference compound]
Km at 15 min [11]: 24.1 µM
Vmax [10, 13]: 0.58 nmol/min/mg proteins

B1: CYP1A2 (Rattus norvegicus) (protein)
chain: T1 sequence (P04799 1-513)
Km [12]: 30.88 µM
Vmax [12]: 0.14 nmol/min/mg proteins
